Data as given in ChEMBL document CHEMBL1201862, “PubChem BioAssay data set” (2004).
Several values for one entry are separate records, joined by “and”; a condition that tells them apart may be missing. Identical values can stand only once. Activity calls are given as the source filed them.

What was measured:
[1] = target: Heat shock protein HSP 90-alpha (Homo sapiens, UniProt P07900); assay type: functional, organism-based
H4 = test: Luminescence Cell-Based Dose Response HTS to Identify Activators of 5'UTR Stem-Loop Driven Prion Protein mRNA Translation in H4 Neuroglioblastoma Cells. [Related pubchem assays: 1829 (Project Summary), 1814 (Primary HTS)]; assay type: functional; settings: Homo sapiens
INS1 = test: beta cell apoptosis inhibitors, cytokine rescue, dose response, luminescence, retest (AID 449756); assay type: functional, cell-based; settings: Rattus norvegicus;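 also: cell death triggered by IL-1 beta plus TNF-alpha plus IFN-gamma mixture; protective hits raise ATP signal compared with cytokine alone wells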
BJ [2] = test: cytotoxicity toward BJ-TERT fibroblasts, dose response, cell-based, RAS-independent, luminescence (AID 1933); assay type: functional; settings: Homo sapiens
[3] = cytotoxicity toward DRD oncogenic fibroblasts, dose response, cell-based, non-viral oncogenic, luminescence (AID 1934); assay type: functional; settings: Homo sapiens
[4] = Luminescence Cell-Based Dose Response HTS to Identify Activators of Luciferase Translation or Activity in H4 […] Cells. [Related pubchem assays: 1829 (Project Summary), 1814 (Primary HTS)]; assay type: functional
[5] = cytotoxicity in HEK-293T cells, dose response, cytotoxicity control for TCR NF-kB inhibitor project, luminescence, T-cell screen hits (AID 489026); assay type: functional, cell-based;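 also: cells exposed to compound about 14 hours before the viability readout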
HeLa = test: Cytotoxicity counterscreen assay for transcriptional activators of heat shock protein 70 (Hsp70). [Related pubchem assays: 1203, 1252 ]; assay type: functional; settings: Homo sapiens;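 also: cells exposed to compound for 16 hours before readout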
BJ [6] = test: cytotoxicity toward BJ-TERT-LT-ST fibroblasts, dose response, cell-based, RAS-independent, luminescence (AID 1935); assay type: functional; settings: Homo sapiens;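 also: BJ fibroblasts immortalized with TERT plus LT and ST oncogenes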
[7] = Luminescence Cell-Based Dose Confirmation HTS to Identify Activators of 5'UTR Stem-Loop Driven Alpha-Synuclein mRNA Translation in H4 Neuroglioblastoma Cells. [Related pubchem assays: 1829 (Project Summary), 1814 (Primary HTS)]; assay type: functional
BJ [8] = test: cytotoxicity toward Ras-transformed BJeLR fibroblasts, dose response, cell-based, alamar blue fluorescence, cherrypicked samples (AID 2631); assay type: functional; settings: Homo sapiens;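 also: confirmatory dose-response assay in RAS-dependent BJ fibroblasts engineered with TERT, LT and ST, with cytotoxicity read by fluorescence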
BJ [9] = test: cells; assay type: functional, cell-based; settings: Homo sapiens
Bcl-2-related protein A1 [10] = target: T1, Bcl-2-related protein A1 (Mus musculus, UniProt Q07440); test: Bfl-1 inhibitors blocking BH3 peptide binding, confirmation, biochemical, TR-FRET, mouse Bfl-1 (AID 621);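 also: TR-FRET binding of GST-Bfl-1 to FITC-labelled Bid peptide via terbium antibody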
T1 sequence (Q07440 whole entry): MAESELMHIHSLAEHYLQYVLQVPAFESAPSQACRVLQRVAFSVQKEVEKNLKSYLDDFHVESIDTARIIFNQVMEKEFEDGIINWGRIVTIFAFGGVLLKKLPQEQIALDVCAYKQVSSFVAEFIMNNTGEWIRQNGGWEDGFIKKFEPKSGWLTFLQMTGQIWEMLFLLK

Bcl-2-related protein A1 [11] = target: T1, Bcl-2-related protein A1; test: Bfl-1 inhibitors, primary screen, biochemical, fluorescence polarization, FITC-Bid, mouse (AID 432)
[12] = target: Glyceraldehyde-3-phosphate dehydrogenase (Homo sapiens, UniProt P04406)
Glyceraldehyde-3-phosphate dehydrogenase, sequence (P04406 whole entry): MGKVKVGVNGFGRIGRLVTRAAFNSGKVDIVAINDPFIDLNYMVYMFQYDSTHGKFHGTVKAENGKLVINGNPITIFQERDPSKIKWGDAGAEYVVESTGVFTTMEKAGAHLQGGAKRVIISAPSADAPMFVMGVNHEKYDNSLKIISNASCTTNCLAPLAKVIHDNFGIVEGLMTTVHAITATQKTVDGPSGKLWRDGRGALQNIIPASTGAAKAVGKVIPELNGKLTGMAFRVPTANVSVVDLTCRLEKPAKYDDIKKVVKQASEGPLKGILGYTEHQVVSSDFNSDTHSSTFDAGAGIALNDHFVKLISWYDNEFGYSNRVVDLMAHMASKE

[13] = target: T2, Tyrosine-protein phosphatase non-receptor type 7 (Homo sapiens, UniProt P35236); test: inhibitors of human HePTP phosphatase, […], biochemical, absorbance, leukemia target (AID 521); assay type: functional
T2 sequence (P35236 whole entry): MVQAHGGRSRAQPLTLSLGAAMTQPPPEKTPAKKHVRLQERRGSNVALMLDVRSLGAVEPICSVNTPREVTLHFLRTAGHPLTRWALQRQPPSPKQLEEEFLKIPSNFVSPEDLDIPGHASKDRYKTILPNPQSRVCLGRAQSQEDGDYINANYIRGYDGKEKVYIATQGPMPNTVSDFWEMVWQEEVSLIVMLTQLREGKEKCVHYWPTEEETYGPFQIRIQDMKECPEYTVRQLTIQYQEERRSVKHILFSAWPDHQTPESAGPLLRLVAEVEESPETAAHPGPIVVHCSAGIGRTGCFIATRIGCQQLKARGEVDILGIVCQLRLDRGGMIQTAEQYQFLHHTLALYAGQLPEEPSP

Bcl-2-related protein A1 [14] = target: T1, Bcl-2-related protein A1; test: Bfl-1 binding inhibitors, SAR follow-up, biochemical, fluorescence polarization (AID 1070)
Cytochrome P450 3A4 = Cytochrome P450 3A4 (Homo sapiens, UniProt P08684); settings: Potency;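 also: confirmatory qHTS run detecting inhibitors and substrates of CYP3A4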
Cytochrome P450 3A4, sequence (P08684 whole entry): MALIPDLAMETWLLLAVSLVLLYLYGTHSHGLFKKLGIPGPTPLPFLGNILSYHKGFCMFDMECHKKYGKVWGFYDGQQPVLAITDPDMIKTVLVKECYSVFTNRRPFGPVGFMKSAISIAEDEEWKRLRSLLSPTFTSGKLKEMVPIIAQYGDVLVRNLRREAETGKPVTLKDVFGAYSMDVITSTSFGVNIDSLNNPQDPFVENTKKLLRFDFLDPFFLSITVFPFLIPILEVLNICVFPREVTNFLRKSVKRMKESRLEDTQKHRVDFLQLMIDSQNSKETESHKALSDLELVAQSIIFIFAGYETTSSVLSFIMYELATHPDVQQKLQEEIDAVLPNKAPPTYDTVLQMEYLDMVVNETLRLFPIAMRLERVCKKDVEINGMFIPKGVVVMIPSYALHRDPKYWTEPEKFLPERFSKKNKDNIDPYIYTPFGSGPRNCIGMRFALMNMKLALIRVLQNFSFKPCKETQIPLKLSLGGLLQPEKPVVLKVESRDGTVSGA

Cytochrome P450 2D6 = Cytochrome P450 2D6 (Homo sapiens, UniProt P10635); test: qHTS Assay for Inhibitors and Substrates of Cytochrome P450 2D6. [Related pubchem assays: 410 ]; assay type: ADME; settings: read-out: Potency
Cytochrome P450 2D6, sequence (P10635 whole entry): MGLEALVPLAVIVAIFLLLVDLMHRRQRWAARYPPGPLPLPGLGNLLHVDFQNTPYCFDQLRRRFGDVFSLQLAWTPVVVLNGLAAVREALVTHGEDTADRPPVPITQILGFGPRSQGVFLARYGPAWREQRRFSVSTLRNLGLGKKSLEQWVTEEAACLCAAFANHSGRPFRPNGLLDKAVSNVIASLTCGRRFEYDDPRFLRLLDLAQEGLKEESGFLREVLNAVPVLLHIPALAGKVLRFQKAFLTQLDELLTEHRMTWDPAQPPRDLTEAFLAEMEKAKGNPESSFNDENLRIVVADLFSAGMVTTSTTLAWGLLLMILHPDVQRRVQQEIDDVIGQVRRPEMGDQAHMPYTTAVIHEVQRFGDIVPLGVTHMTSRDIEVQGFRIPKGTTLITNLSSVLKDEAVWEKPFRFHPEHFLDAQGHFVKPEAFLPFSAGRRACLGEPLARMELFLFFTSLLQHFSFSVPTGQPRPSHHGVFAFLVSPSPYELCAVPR

Cytochrome P450 2C19 = Cytochrome P450 2C19 (Homo sapiens, UniProt P33261); test: qHTS Assay for Inhibitors and Substrates of Cytochrome P450 2C19. [Related pubchem assays: 410 ]; assay type: ADME; settings: read-out: Potency
Cytochrome P450 2C19, sequence (P33261 whole entry): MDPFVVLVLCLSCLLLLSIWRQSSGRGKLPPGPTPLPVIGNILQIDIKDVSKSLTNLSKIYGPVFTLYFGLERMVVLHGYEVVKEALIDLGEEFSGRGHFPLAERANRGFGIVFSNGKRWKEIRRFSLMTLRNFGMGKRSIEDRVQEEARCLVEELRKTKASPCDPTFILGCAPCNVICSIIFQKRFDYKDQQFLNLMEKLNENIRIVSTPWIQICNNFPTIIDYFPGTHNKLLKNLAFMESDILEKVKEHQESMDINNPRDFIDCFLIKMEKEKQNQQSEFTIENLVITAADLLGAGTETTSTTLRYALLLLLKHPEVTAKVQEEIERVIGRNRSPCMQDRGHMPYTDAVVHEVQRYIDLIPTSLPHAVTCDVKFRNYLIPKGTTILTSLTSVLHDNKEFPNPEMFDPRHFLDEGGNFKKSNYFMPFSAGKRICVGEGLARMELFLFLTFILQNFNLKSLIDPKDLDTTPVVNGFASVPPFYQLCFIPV

[15] = target: Sphingosine 1-phosphate receptor 2 (Homo sapiens, UniProt O95136); test: Dose Response Cell Based Assay for Agonists of the S1P2 Receptor of Purchased Analogues. [Related pubchem assays: 729, 843, 854, 736 ]; assay type: functional
Sphingosine 1-phosphate receptor 2, sequence (O95136 whole entry): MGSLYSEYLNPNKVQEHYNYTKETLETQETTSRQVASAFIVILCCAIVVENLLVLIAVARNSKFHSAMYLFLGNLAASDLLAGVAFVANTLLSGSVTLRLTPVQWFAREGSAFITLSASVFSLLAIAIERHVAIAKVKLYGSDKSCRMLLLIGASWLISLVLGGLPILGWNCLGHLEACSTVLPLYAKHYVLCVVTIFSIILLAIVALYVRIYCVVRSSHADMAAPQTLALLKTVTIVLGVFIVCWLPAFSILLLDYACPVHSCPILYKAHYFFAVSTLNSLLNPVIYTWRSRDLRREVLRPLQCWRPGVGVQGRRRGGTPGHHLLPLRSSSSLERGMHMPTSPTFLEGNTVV

[16] = target: T3, Aryl hydrocarbon receptor (Homo sapiens, UniProt P35869); test: Luminescence-based cell-based high throughput dose response assay for activators of the Aryl Hydrocarbon Receptor (AHR). [Related pubchem assays: 2796 (Primary screen (AHR activators in singlicate)), 2845 (Confirmation screen (AHR activators in triplicate)), 434939 (Counterscreen (PXR activators in triplicate)), 2804 (Summary (AHR activators))]; assay type: ADME
T3 sequence (P35869 whole entry): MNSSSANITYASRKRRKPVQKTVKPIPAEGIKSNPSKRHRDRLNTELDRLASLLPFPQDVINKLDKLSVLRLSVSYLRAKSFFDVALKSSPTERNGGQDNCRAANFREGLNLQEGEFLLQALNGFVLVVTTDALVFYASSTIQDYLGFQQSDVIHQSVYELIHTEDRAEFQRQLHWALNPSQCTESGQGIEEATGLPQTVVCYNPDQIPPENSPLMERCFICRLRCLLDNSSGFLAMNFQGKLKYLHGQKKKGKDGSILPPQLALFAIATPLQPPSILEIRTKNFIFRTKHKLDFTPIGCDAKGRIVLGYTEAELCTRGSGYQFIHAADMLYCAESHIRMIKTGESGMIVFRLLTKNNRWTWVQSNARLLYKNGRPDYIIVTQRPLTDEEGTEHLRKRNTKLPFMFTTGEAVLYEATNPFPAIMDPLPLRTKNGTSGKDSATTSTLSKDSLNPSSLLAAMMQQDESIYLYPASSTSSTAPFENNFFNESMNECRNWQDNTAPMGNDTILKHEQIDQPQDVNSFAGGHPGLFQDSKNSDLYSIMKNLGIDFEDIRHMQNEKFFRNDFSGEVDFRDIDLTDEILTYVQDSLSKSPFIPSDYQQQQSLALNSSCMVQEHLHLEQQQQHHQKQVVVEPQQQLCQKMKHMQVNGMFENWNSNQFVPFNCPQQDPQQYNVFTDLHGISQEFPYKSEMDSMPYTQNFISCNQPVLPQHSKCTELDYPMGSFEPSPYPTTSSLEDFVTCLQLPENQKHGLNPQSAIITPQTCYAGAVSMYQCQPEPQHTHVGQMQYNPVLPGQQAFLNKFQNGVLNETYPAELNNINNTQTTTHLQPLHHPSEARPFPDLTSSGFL

[17] = inhibitors of PGC1a acetylation in cells, dose response, cell-based, cherry-picked samples (AID 720514); assay type: functional;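 also: potency may reflect raised or lowered acetylation signal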
Vero = test: host cell cytotoxicity of antiviral hits, dose response, cytotoxicity control for West Nile virus antiviral project, secondary assay (AID 1650); assay type: functional; settings: Chlorocebus sabaeus
[18] = Luminescence Cell-Based Dose Confirmation HTS to Identify Inhibitors of Polyadenylation.; assay type: functional
Bcl-2-like protein 1 = Bcl-2-like protein 1 (Homo sapiens, UniProt Q07817); test: BCL-XL inhibitors, dose response, selectivity assay for MCL1 inhibitor project, biochemical, fluorescence polarization, 1536-well (AID 2218)
Bcl-2-like protein 1, sequence (Q07817 whole entry): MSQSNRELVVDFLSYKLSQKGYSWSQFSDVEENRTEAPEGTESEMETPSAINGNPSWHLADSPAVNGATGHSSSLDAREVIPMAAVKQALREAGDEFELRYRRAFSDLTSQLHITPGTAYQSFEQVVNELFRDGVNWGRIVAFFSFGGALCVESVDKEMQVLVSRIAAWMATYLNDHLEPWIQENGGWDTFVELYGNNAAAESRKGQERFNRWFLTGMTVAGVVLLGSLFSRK

Estrogen receptor beta [19] = target: T4, Estrogen receptor beta (Homo sapiens, UniProt Q92731);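 also: recombinant ER-beta bound to coactivator SRC1 peptide in presence of estradiol agonist; inhibitors block coactivator peptide binding and lower the FRET signal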
T4 sequence (Q92731 whole entry): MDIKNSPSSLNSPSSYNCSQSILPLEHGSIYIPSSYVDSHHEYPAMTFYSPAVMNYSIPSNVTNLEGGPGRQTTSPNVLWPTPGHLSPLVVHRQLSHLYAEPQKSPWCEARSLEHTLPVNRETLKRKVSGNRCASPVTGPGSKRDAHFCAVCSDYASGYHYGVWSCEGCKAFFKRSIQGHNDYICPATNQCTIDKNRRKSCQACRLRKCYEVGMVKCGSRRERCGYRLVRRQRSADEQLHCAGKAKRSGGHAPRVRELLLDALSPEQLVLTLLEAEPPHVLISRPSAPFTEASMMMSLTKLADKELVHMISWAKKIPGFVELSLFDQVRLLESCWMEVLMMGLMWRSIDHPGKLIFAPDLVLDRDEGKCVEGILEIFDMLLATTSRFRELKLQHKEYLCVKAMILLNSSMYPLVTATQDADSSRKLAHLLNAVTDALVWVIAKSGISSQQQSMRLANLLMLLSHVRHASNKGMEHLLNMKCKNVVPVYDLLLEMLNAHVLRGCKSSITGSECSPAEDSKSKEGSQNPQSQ

SUMO-activating enzyme [20] = target: T5, SUMO-activating enzyme (Homo sapiens, UniProt Q9UBT2); test: inhibitors of in vitro SUMOylation cascade, primary screen, biochemical, HTRF, uHTS (AID 2006); assay type: protein-complex assay
T5 sequence (Q9UBE0 whole entry): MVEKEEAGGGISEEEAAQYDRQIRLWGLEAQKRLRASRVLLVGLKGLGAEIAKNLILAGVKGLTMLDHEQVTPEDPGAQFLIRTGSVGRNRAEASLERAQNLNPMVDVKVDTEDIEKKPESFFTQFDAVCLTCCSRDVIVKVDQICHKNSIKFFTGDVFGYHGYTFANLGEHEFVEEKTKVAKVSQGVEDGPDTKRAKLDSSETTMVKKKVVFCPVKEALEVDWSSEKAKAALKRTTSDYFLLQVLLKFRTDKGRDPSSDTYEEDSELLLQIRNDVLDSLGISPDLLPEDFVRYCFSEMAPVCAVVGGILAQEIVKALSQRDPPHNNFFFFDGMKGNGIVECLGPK
T5 sequence (Q9UBT2 whole entry): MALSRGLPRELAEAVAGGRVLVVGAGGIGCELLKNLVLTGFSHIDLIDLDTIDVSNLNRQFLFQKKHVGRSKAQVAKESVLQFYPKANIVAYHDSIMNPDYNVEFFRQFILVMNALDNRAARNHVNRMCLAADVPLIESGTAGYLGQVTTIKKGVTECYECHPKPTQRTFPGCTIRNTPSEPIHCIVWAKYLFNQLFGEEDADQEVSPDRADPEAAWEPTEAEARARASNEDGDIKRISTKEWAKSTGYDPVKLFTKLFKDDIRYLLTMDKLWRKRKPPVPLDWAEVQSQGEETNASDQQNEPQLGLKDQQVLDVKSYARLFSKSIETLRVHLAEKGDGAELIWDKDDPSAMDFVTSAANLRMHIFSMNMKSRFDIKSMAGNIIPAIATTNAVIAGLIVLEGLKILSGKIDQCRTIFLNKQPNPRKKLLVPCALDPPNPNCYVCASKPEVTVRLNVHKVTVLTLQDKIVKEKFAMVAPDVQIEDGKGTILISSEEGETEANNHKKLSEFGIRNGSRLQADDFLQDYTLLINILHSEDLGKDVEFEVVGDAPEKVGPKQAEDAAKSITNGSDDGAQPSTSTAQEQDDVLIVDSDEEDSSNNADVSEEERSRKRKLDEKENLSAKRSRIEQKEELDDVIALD

Bcl-2-like protein 10 = target: T6, Bcl-2-like protein 10 (Homo sapiens, UniProt Q9HD36); test: displacers of TR3 peptide from Bcl-B, primary screen, selectivity assay for Bfl-1 inhibitor project, biochemical, fluorescence polarization, FITC-TR3 peptide (AID 748);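 also: fluorescence polarization from a fluorescein-labelled TR3 peptide binding purified Bcl-B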
T6 sequence (Q9HD36 whole entry): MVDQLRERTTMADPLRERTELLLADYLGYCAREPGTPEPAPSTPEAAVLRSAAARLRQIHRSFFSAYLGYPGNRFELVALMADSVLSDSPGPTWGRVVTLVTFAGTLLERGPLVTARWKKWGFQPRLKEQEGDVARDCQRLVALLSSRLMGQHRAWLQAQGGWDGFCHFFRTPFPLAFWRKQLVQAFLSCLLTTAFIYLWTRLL

SUMO-activating enzyme [21] = target: T5, SUMO-activating enzyme; test: SUMOylation inhibitor hit validation, confirmation, SUMOylation inhibitor project, biochemical, AlphaScreen (AID 2018); assay type: functional
Estrogen receptor beta [22] = target: T4, Estrogen receptor beta; test: ERβ–SRC-3 coactivator interaction inhibitors, confirmation, orthogonal assay, biochemical, ELISA, streptavidin-HRP readout (AID 1060)
[23] = target: Induced myeloid leukemia cell differentiation protein Mcl-1 (Homo sapiens, UniProt Q07820); test: MCL1-BIM BH3 interaction inhibitors, dose response, biochemical, fluorescence polarization, BIM-BH3 peptide, 1536-well (AID 2217)
Induced myeloid leukemia cell differentiation protein Mcl-1, sequence (Q07820 whole entry): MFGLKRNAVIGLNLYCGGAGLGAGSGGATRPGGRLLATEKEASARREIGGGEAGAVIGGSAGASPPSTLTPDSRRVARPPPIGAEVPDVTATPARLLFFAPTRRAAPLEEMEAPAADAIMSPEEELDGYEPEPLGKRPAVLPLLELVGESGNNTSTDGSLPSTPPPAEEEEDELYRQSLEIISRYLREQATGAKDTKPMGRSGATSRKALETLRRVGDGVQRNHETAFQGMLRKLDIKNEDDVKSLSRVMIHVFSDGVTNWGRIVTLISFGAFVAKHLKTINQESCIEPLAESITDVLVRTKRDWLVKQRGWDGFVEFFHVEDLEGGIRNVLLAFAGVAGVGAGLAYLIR

CC1C/C(=C/c2ccncc2)C(=O)/C(=C/c2ccncc2)C1 (configuration not stated)
AC50 [1]: 4.23 µM (active) | EC50 (H4): > 120 µM (not active) | AC50 (INS1): 3.66 µM (active) | EC50 (BJ [2]): 1.1 µM (inconclusive) | EC50 [3]: 2.23 µM (inconclusive) | EC50 [4]: > 60 µM (not active) | IC50 [5]: 54 µM (inactive) | CC50 (HeLa): > 1.22 µM (not active) | EC50 (BJ [6]): 2.3 µM (inconclusive) | EC50 [7]: > 120 µM (not active) | EC50 (BJ [8]): 0.291 µM (active) | EC50 (BJ [9]): 1.01 µM (inconclusive)

COc1ccc2nc(O)c(-c3noc(-c4ccc(F)cc4)n3)cc2c1
IC50 (Bcl-2-related protein A1 [10]): 4.45 µM (active) and 3.6 µM (active) | IC50 (Bcl-2-related protein A1 [11]): 6.15 µM (active) | IC50 [12]: > 100 µM (not active) | IC50 [13]: 2.18 µM (active) | IC50 (Bcl-2-related protein A1 [14]): 3.85 µM (active)

CCCCCCC#CC1C=CC(OC(C)=O)C(COC(C)=O)O1 (configuration not stated)
AC50 (Cytochrome P450 3A4): 3.98 µM (inconclusive) | AC50 (Cytochrome P450 2D6): 7.94 µM (inconclusive) | AC50 (Cytochrome P450 2C19): 3.98 µM (inconclusive)

Cc1cc(C(=O)CN2C(=O)NC3(CCc4ccccc43)C2=O)c(C)n1Cc1ccccc1 (configuration not stated)
EC50 [15]: > 30 µM (not active)

CSc1ncc(C(=O)Nc2ccc(Cl)cc2)c(C)n1
EC50 [16]: 0.0222 µM (active)

CCOC(=O)C(CC)(CC)C(=O)/C=C/c1ccc(Br)cc1
AC50 [17]: 20.6 µM (active) | CC50 (Vero): 40.6 µM (active)

Cc1nc2ccc(C(=O)NCc3ccc4c(c3)OCO4)cc2s1
EC50 [18]: > 120 µM (not active)

O=c1nc2s/c(=C\c3ccco3)c(=O)n2nc1Cc1ccc(F)cc1
IC50 (Bcl-2-like protein 1): > 109 µM (not active) | IC50 (Estrogen receptor beta [19]): 2.35 µM (active) | IC50 (SUMO-activating enzyme [20]): 38.3 µM (active) | IC50 (Bcl-2-like protein 10): 14.7 µM (active) | IC50 (SUMO-activating enzyme [21]): 7.36 µM (active) | IC50 (Estrogen receptor beta [22]): 0.987 µM (not active) | IC50 [23]: > 109 µM (not active)
